Measurements published in patent US9161988B2, “Multimeric peptide conjugates and uses thereof” (Angiochem Inc., priority 2009, dated 2015).

How the values were obtained:
[1] = in situ brain perfusion assay, Angiopep-1 dimer vs Angiopep-2; type: in vivo
Procedure: Volume of brain parenchymal distribution was measured using the in situ brain perfusion assay (FIG. 6). […] Parenchymal uptake of the Angiopep-1 dimer and Angiopep-2 was also measured at various concentrations in situ (FIG. 7).

[2] = relative to Angiopep-1 (250 nM); threshold defining 'efficiently transported across the BBB'; cited from earlier work

| Volume of brain parenchymal distribution ([1]; as compared to monomeric Angiopep-2, especially at lower concentrations, FIG. 6) | Molecule | Parenchymal uptake ([1]; various concentrations in situ, especially at lower concentrations (<500 nmol), compared to Angiopep-2 monomer, FIG. 7) | transport across the BBB relative to Angiopep-1 [2] [%] |
| --- | --- | --- | --- |
| Great uptake volumes | C[C@@H](O)[C@H](N)C(=O)N[C@@H](Cc1ccccc1)C(=O)N[C@@H](Cc1ccccc1)C(=O)N[C@@H](Cc1ccc(O)cc1)C(=O)NCC(=O)NCC(=O)N[C@@H](CSSC[C@H](NC(=O)CNC(=O)CNC(=O)[C@H](Cc1ccc(O)cc1)NC(=O)[C@H](Cc1ccccc1)NC(=O)[C@H](Cc1ccccc1)NC(=O)[C@@H](N)[C@@H](C)O)C(=O)N[C@@H](CCCNC(=N)N)C(=O)NCC(=O)N[C@@H](CCCCN)C(=O)N[C@@H](CCCNC(=N)N)C(=O)N[C@@H](CC(N)=O)C(=O)N[C@@H](CC(N)=O)C(=O)N[C@@H](Cc1ccccc1)C(=O)N[C@@H](CCCCN)C(=O)N[C@H](C(=O)N[C@@H](CCC(=O)O)C(=O)N[C@@H](CCC(=O)O)C(=O)N[C@@H](Cc1ccc(O)cc1)C(N)=O)[C@@H](C)O)C(=O)N[C@@H](CCCNC(=N)N)C(=O)NCC(=O)N[C@@H](CCCCN)C(=O)N[C@@H](CCCNC(=N)N)C(=O)N[C@@H](CC(N)=O)C(=O)N[C@@H](CC(N)=O)C(=O)N[C@@H](Cc1ccccc1)C(=O)N[C@@H](CCCCN)C(=O)N[C@H](C(=O)N[C@@H](CCC(=O)O)C(=O)N[C@@H](CCC(=O)O)C(=O)N[C@@H](Cc1ccc(O)cc1)C(N)=O)[C@@H](C)O [Angiopep-1 dimer] | higher transport than the Angiopep-2 monomer | – |
| – | Angiopep-6: peptide vector, SEQ ID NO:111, T F F Y G G S R G K R N N F R T E E Y (TFFYGGSRGKRNNFRTEEY) | – | 38.5 |
